Experiments:
[1] = system: CDK, GSK3, and/or TRK signaling pathways; test: Primary selectivity of the proprietary small molecules (Table 16); conditions: as listed in Table 17
Protocol: A subset of 14 proprietary small molecules, known to have specificity for the CDK, GSK3, and/or TRK signaling pathways were evaluated for their potential to differentiate human embryonic stem cells to cells expressing markers characteristic of the definitive endoderm lineage.

[2] = system: H1 human embryonic stem cells; test: Screen of CDK, GSK3 and TRK inhibitors with or without GDF-8, SOX17 and cell number (Example 20, Table 17); assay type: cell-based; conditions: Plate 1; for Cell Number, % of positive control / Sox17 Expression, % of positive control: positive control = Activin A/Wnt3a
Protocol: Briefly, clusters of H1 human embryonic stem cells were grown on reduced growth factor Matrigel™ (Invitrogen; Cat #356231) coated tissue culture plastic. Cells were passaged using collagenase (Invitrogen; Cat #17104-019) treatment and gentle scraping, washed to remove residual enzyme, and plated with even dispersal at a ratio of 1:1 (surface area) on reduced growth factor […]™ (BD Biosciences; Cat #356231)-coated 96-well black plates (Packard ViewPlates; PerkinElmer; Cat #6005182) using volumes of 100 μl/well. Cells were allowed to attach and then recover log phase growth over a 1 to 3 day time period, feeding daily with MEF conditioned medium supplemented with 8 ng/ml bFGF (R&D Systems; Cat #233-FB). Plates were maintained at 37° C., 5% CO2 in a humidified box throughout the duration of assay.
Screening was conducted using the compounds described in Table 16. […] Compounds were made available as 5 mM stocks in 96-well plate format, solubilized in 100% DMSO (Sigma; Cat #D2650) and stored at −80° C. The library compounds were further diluted to an intermediate concentration of 0.2 mM in 50 mM HEPES (Invitrogen; Cat #15630-080), 20% DMSO and stored at 4° C. Test conditions were performed in triplicate, feeding on alternating days over a four-day assay period. Assay was initiated by aspirating culture medium from each well followed by three washes in PBS (Invitrogen; Cat #14190) to remove residual growth factors. On the first day of assay, test volumes of 200 μl per well were added to each well using DMEM:F12 base medium (Invitrogen; Cat #11330-032) supplemented with 0.5% FCS (HyClone; Cat #SH30070.03) and 100 ng/ml GDF-8 (R&D Systems, Cat #788-G8) plus 2.5 μM compound. A parallel set of test samples were treated in an identical manner but omitting GDF-8 from the medium. On the third day of assay, test volumes of 100 μper well were added to each well using DMEM:F12 base medium supplemented with 2% FCS plus 100 ng/ml GDF-8 (R&D Systems, Cat #788-G8). […] Positive control samples contained the same base medium supplemented with FCS and 100 ng/ml recombinant human activin A (PeproTech; Cat #120-14) throughout the four day assay along with Wnt3a (20 ng/ml) addition on days 1 and 2. Negative control samples contained DMEM:F12 base medium supplemented with FCS.
At the conclusion of four-days of culture, assay plates were washed twice with PBS (Invitrogen; Cat #14190), fixed with 4% paraformaldehyde (Alexis Biochemical; Cat #ALX-350-011) at room temperature for 20 minutes, then washed three times with PBS and permeabilized with 0.5% Triton X-100 (Sigma; Cat #T8760-2) for 20 minutes at room temperature. Cells were washed again three times with PBS and blocked with 4% chicken serum (Invitrogen; Cat #16110082) in PBS for 30 minutes at room temperature. Primary antibody (goat anti-human SOX17; R&D Systems; Cat #AF1924) was diluted 1:100 in 4% chicken serum and added to each well for one hour at room temperature. Alexa Fluor 488 conjugated secondary antibody (chicken anti-goat IgG; Molecular Probes; Cat #AZ1467) was diluted 1:200 in PBS and added to each sample well after washing three times with PBS. To counterstain nuclei, 4 μg/ml Hoechst 33342 (Invitrogen; Cat #H3570) was added for ten minutes at room temperature. Plates were washed once with PBS and left in 100 μl/well PBS for imaging.
Imaging was performed using an IN Cell Analyzer 1000 (GE Healthcare) utilizing the 51008bs dichroic for cells stained with Hoechst 33342 and Alexa Fluor 488. Exposure times were optimized from positive control wells and from untreated negative control wells stained with secondary antibody alone. Images from 15 fields per well were acquired to compensate for any cell loss during the bioassay and subsequent staining procedures. Measurements for total cell number and total SOX17 intensity were obtained from each well using IN Cell Developer Toolbox 1.7 (GE Healthcare) software. […]

[3] = compound in combination with GDF8

CN(C)CCNC(=O)c1ccc(-c2cnc3ccc(NCc4cccc(Cl)c4)nn23)cc1 [Compound 57, 4-(6-{[(3-Chlorophenyl)methyl]amino}imidazo[1,2-b]pyridazin-3-yl)-N-[2-(dimethylamino)ethyl]benzamide]
Compound Selectivity [1]: Selective for Trk | Cell Number, Average Total Cell Number ([2]; compound alone, No GDF8): 1222 | Sox17 Expression, Average Total Intensity ([2]; compound alone, No GDF8): −7.1E+05 | Cell Number, % of positive control ([2]; compound alone, No GDF8): 8.4 % of positive control | Sox17 Expression, % of positive control ([2]; compound alone, No GDF8): −0.3 % of positive control | Cell Number, Average Total Cell Number [2, 3]: 2110 | Sox17 Expression, Average Total Intensity [2, 3]: 1.1E+07 | Cell Number, % of positive control [2, 3]: 14.6 % of positive control | Sox17 Expression, % of positive control [2, 3]: 4.8 % of positive control

N#Cc1cnc2nc1Nc1cccc(c1)OCCNC(=O)c1cccc(c1)N2 [Compound 41, 18-Oxo-14-oxa-2,4,8,17,25-pentaazatetracyclo[17.3.1.1˜3,7˜0.1˜9,13˜]pentacosa-1(23), 3(25), 4,6,9(24), 10,12,19,21-nonaene-6-carbonitrile]
Compound Selectivity [1]: Selective for GSK | Cell Number, Average Total Cell Number ([2]; compound alone, No GDF8): 9995 | Sox17 Expression, Average Total Intensity ([2]; compound alone, No GDF8): 5.9E+04 | Cell Number, % of positive control ([2]; compound alone, No GDF8): 69.0 % of positive control | Sox17 Expression, % of positive control ([2]; compound alone, No GDF8): 0.0 % of positive control | Cell Number, Average Total Cell Number [2, 3]: 4455 | Sox17 Expression, Average Total Intensity [2, 3]: 3.4E+07 | Cell Number, % of positive control [2, 3]: 30.8 % of positive control | Sox17 Expression, % of positive control [2, 3]: 14.8 % of positive control

CN1CCC(NC(=O)c2ccc(Nc3nccc(N4CCN(C)c5ccccc54)n3)cc2)CC1 [Compound 11, 4-{[4-(4-Methyl-3,4-dihydroquinoxalin-1(2H)-yl)pyrimidin-2-yl]amino}-N-(1-methylpiperidin-4-yl)benzamide]
Compound Selectivity [1]: Selective for CDK | Cell Number, Average Total Cell Number ([2]; compound alone, No GDF8): 565 | Sox17 Expression, Average Total Intensity ([2]; compound alone, No GDF8): −1.1E+06 | Cell Number, % of positive control ([2]; compound alone, No GDF8): 3.9 % of positive control | Sox17 Expression, % of positive control ([2]; compound alone, No GDF8): −0.5 % of positive control | Cell Number, Average Total Cell Number [2, 3]: 210 | Sox17 Expression, Average Total Intensity [2, 3]: −4.9E+05 | Cell Number, % of positive control [2, 3]: 1.4 % of positive control | Sox17 Expression, % of positive control [2, 3]: −0.2 % of positive control

Nc1nccc(-c2cccc(Nc3ncc4nnn(-c5cccc(CNC(=O)C6CC6)c5)c4n3)c2)n1 [Compound 8, N-{[3-(5-{[3-(2-Aminopyrimidin-4-yl)phenyl]amino}-3H-1-[1,2,3]triazolo[4,5-d]pyrimidin-3-yl)phenyl]methyl}cyclopropanecarboxamide]
Compound Selectivity [1]: Selective for GSK | Cell Number, Average Total Cell Number ([2]; compound alone, No GDF8): 13235 | Sox17 Expression, Average Total Intensity ([2]; compound alone, No GDF8): 3.8E+05 | Cell Number, % of positive control ([2]; compound alone, No GDF8): 91.4 % of positive control | Sox17 Expression, % of positive control ([2]; compound alone, No GDF8): 0.2 % of positive control | Cell Number, Average Total Cell Number [2, 3]: 5018 | Sox17 Expression, Average Total Intensity [2, 3]: 4.7E+07 | Cell Number, % of positive control [2, 3]: 34.7 % of positive control | Sox17 Expression, % of positive control [2, 3]: 20.4 % of positive control

O=C1NCc2cccc(c2)-c2ccnc(n2)Nc2ccc(C(=O)N3CCOCC3)c(c2)CN2CCC[C@@H]12 [Compound 44, (18S)-11-(Morpholin-4-ylcarbonyl)-5,7,14,20,28-pentaazapentacyclo[20.3.1.1˜2,6˜0.1˜8,12˜0.0˜14,18˜]octacosa-1(26), 2(28), 3,5,8(27), 9,11,22,24-nonaen-19-one]
Compound Selectivity [1]: Selective for GSK | Cell Number, Average Total Cell Number ([2]; compound alone, No GDF8): 14 | Sox17 Expression, Average Total Intensity ([2]; compound alone, No GDF8): −1.1E+06 | Cell Number, % of positive control ([2]; compound alone, No GDF8): 0.1 % of positive control | Sox17 Expression, % of positive control ([2]; compound alone, No GDF8): −0.5 % of positive control | Cell Number, Average Total Cell Number [2, 3]: 226 | Sox17 Expression, Average Total Intensity [2, 3]: −9.5E+05 | Cell Number, % of positive control [2, 3]: 1.6 % of positive control | Sox17 Expression, % of positive control [2, 3]: −0.4 % of positive control

O=C(O)c1cc(Nc2ncc3nnn(-c4ccccc4)c3n2)ccc1F [Compound 7, 2-Fluoro-5-[(3-phenyl-3H-[1,2,3]triazolo[4,5-d]pyrimidin-5-yl)amino]benzoic acid]
Compound Selectivity ([1]; GDF8 treatment): Selective for GSK | Compound Selectivity ([1]; No GDF8 treatment): Selective for CDK | Cell Number, Average Total Cell Number ([2]; compound alone, No GDF8): 3 | Sox17 Expression, Average Total Intensity ([2]; compound alone, No GDF8): −1.4E+06 | Cell Number, % of positive control ([2]; compound alone, No GDF8): 0.0 % of positive control | Sox17 Expression, % of positive control ([2]; compound alone, No GDF8): −0.6 % of positive control | Cell Number, Average Total Cell Number [2, 3]: 5296 | Sox17 Expression, Average Total Intensity [2, 3]: 7.0E+07 | Cell Number, % of positive control [2, 3]: 36.6 % of positive control | Sox17 Expression, % of positive control [2, 3]: 30.4 % of positive control

COCCCNCc1ccc(Nc2nccc(-c3c[nH]c4ncccc34)n2)c(OC)c1 [Compound 12, N-(2-Methoxy-4-{[(3-methoxypropyl)amino]methyl}phenyl)-4-(1H-pyrrolo[2,3-b]pyridin-3-yl)pyrimidin-2-amine]
Compound Selectivity ([1]; GDF8 treatment): Selective for CDK | Compound Selectivity ([1]; No GDF8 treatment): Selective for GSK | Cell Number, Average Total Cell Number ([2]; compound alone, No GDF8): 13124 | Sox17 Expression, Average Total Intensity ([2]; compound alone, No GDF8): −2.3E+05 | Cell Number, % of positive control ([2]; compound alone, No GDF8): 90.7 % of positive control | Sox17 Expression, % of positive control ([2]; compound alone, No GDF8): −0.1 % of positive control | Cell Number, Average Total Cell Number [2, 3]: 31 | Sox17 Expression, Average Total Intensity [2, 3]: −1.3E+06 | Cell Number, % of positive control [2, 3]: 0.2 % of positive control | Sox17 Expression, % of positive control [2, 3]: −0.6 % of positive control

O=C(O)c1ccc(Nc2ncc3nnn(-c4cccc(F)c4)c3n2)cc1 [Compound 6]
Compound Selectivity [1]: Selective for GSK | Cell Number, Average Total Cell Number ([2]; compound alone, No GDF8): 14827 | Sox17 Expression, Average Total Intensity ([2]; compound alone, No GDF8): −1.8E+05 | Cell Number, % of positive control ([2]; compound alone, No GDF8): 102.4 % of positive control | Sox17 Expression, % of positive control ([2]; compound alone, No GDF8): −0.1 % of positive control | Cell Number, Average Total Cell Number [2, 3]: 5118 | Sox17 Expression, Average Total Intensity [2, 3]: 5.8E+07 | Cell Number, % of positive control [2, 3]: 35.4 % of positive control | Sox17 Expression, % of positive control [2, 3]: 25.2 % of positive control
